Data published in patent US8367687B2, “Pyrazole derivatives” (Novartis AG, priority 2007, dated 2013).
Read-outs that look alike come from different tables or passages of the source.

Legend:
CDK4 = CDK4 (Homo sapiens, UniProt P11802); assay: CDK4 HTRF; assay type: biochemical
CDK2 cyA = CDK2 cyA (Homo sapiens, UniProt P24941); assay: CDK2 cyA IMAP; assay type: biochemical
hCDK1/B = hCDK1/B (Homo sapiens, UniProt P06493); assay: hCDK1/B; assay type: biochemical
p-pRb/S780 = p-pRb/S780 ELISA Cellular Assay (CDK4 ELISA assay); assay type: cell-based; conditions: cells treated for 24 hrs
Procedure: Biological Activity p-pRb/S780 ELISA Cellular Assay
Maxisorp plates (Nunc 442404) are coated with 50 ul of 1 ug/mL total phospholated Retinoblast Protein (pRb) antibody (4H1 Cell Signaling 9309L) diluted in DPBS (Phosphate Buffered Saline) overnight at 4° C. The next day plates are blocked with Superblock in TBST (Pierce 37535) for one hour to overnight—changing block once during that time. Cells are plated at 50-60% confluency in a 96 well plate (Corning 3585) in 100 uL complete media (media containing fetal bovine serum (Gibco 1600-044), 2 mM L-Glutamine (Gibco 25030), and 1% Penicillin/Streptomycin (Gibco 15140-122) and grown overnight in a humidified chamber at 37° C. and 5% CO2. Compounds (in DMSO) are diluted in media to create a 7 point dilution series of compound with concentrations ranging from 110 uM to 0.027 uM. 10 ul of the diluted compounds are added to the cells, with final concentrations on cells ranging from 10 uM to 0.002 uM. Cells are treated for 24 hrs in a humidified chamber at 37° C. and 5% CO2. Following compound incubation, cells are lysed with 40 uL/well lysis buffer (50 mM Tris-HCL pH 7.5 (Invitrogen 15567-027), 120 mM NaCl (Promega V4221), 1 mM EDTA (Gibco 15575-038), 6 mM EGTA (Fisher 02783-100), 1% Nonidet P40 (Fluka R02771). Plates are placed on Titerplate shaker (Labline model 4625) for 5 minutes at 4° C. to lyse cells. After lysis, 10 ul of cell lysate and 50 ul 1×PBS/10% Superblock (Gibco 10010 and Pierce 37535) is added to each well of the precoated and blocked Maxisorp plate and allowed to bind at room temperature for 2 hours on Oribtron Rotator II (Boekel Industries Model 260250). Plates are then washed 3× with 1×TBST (Teknova T9201) using Biotek platewasher equipped with a Biostack. The final wash is not aspirated. The final wash is removed by flicking off and tapping plate on paper towels. ppRbS780 antibody (Cell Signaling 9307L) is diluted 1:1000 in 1×PBS/10% Superblock (Gibco 10010 and Pierce 37535) and 50 ul is added to each well. Plates are then incubated 1 hour on Oribtron Rotator II (Boekel Industries Model 260250). Plates are then washed as previously described. Goat anti-rabbit HRP (Promega W401B) is diluted 1:2500 1×PBS/10% Superblock (Gibco 10010 and Pierce 37535) and 50 ul is added to each well. Plates are then incubated 30 minutes on Oribtron Rotator II. Plates are then washed as previously described. 50 uL Ultra TMB ELISA (Pierce 34028) is then added to each well. Plates are incubated 5-20 minutes until blue color develops. 50 ul 2M Sulfuric acid (Mallinckrodt 2468-46) is then added to each well to stop the reaction. Absorbance at 450 nm for each plate is read on Spectramax Plus (Molecular Devices).

[1] = Table 1, read-out: CDK2 cyA IMAP
[2] = Table 1, read-out: CDK4 ELISA assay IC50
[3] = Table 2, read-out: CDK4 HTRF/ IC50
[4] = Table 2, read-out: CDK2cyA IMAP/ IC50
[5] = Table 2, read-out: p_pRb Cap EL/ IC50_ppRbinh

Chain of CDK4 (P11802 whole entry): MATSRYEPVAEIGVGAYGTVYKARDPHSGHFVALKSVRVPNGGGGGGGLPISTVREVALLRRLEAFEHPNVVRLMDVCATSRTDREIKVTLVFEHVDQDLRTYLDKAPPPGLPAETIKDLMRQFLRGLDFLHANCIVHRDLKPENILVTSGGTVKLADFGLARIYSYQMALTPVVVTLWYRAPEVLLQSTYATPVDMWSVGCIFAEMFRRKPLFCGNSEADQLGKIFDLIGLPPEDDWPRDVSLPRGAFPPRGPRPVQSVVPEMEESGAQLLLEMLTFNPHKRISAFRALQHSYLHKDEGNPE
Chain of CDK4 (P24385 whole entry partner): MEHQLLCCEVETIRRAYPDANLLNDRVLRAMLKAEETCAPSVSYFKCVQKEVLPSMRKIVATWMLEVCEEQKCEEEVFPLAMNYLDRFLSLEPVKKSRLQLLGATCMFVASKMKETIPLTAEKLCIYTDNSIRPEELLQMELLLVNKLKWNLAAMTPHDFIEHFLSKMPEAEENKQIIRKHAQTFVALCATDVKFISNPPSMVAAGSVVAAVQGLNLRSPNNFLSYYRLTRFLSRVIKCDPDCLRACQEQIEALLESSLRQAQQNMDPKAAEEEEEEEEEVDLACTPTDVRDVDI
Chain of hCDK1/B (P06493 whole entry): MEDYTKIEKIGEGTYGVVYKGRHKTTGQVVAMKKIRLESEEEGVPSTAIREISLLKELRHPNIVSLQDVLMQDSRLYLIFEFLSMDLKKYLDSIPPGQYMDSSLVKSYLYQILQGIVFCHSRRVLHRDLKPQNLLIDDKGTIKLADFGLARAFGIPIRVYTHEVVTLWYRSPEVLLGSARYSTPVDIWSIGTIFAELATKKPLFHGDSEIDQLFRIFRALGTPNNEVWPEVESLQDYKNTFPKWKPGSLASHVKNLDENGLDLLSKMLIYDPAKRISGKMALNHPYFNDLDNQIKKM
Chain of hCDK1/B (P14635 whole entry partner): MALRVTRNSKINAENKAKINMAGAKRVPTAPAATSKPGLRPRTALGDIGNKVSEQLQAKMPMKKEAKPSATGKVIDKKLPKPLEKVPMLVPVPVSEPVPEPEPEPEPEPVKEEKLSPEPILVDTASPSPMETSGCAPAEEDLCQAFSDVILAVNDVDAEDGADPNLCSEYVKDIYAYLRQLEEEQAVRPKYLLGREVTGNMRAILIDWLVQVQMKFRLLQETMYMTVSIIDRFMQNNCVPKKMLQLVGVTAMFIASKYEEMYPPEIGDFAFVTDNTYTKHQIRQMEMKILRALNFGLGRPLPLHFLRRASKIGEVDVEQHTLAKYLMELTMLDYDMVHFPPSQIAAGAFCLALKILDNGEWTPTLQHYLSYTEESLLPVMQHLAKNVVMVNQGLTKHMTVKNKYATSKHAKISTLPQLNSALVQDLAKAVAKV

Row | IC50 (CDK4; Table 1, read-out: CDK4 HTRF) [µM] | IC50 (CDK2 cyA; [1]) [µM] | IC50 (hCDK1/B; Table 1) [µM] | IC50 (p-pRb/S780; [2]) [µM] | IC50 (CDK4; [3]) [µM] | IC50 (CDK2 cyA; [4]) [µM] | IC50 (hCDK1/B; Table 2) [µM] | IC50 (p-pRb/S780; [5]) [µM] | Structure (SMILES)
1 | < 5 | ≥ 15 | ≥ 15 | < 15 | – | – | – | – | CC(C)c1[nH]ncc1-c1ccnc(NCCC2CCCN2C)c1 (stereo not shown) [Example 42]
2 | – | – | – | – | < 10 | ≥ 15 | ≥ 15 | < 15 | Cc1n[nH]cc1-c1ccnc(NCc2ccco2)n1 [Example 122]
3 | – | – | – | – | < 10 | ≥ 15 | ≥ 15 | < 15 | Cc1n[nH]cc1-c1ccnc(NCCN(C)C)n1 [Example 94]
4 | – | – | – | – | < 0.05 | < 0.5 | < 0.5 | < 1 | CC(C)c1n[nH]cc1-c1ccnc(N[C@@H]2CCc3ccccc32)n1 [Example 176, (R)-Indan-1-yl-[4-(3-isopropyl-1H-pyrazol-4-yl)-pyrimidin-2-yl]-amine]
5 | < 5 | ≥ 15 | ≥ 15 | < 15 | – | – | – | – | c1cc(-c2cn[nH]c2C2CCCC2)cc(NCCCN2CCOCC2)n1 [Example 65]
6 | – | – | – | – | < 0.05 | < 1 | < 0.5 | < 5 | CC(C)c1n[nH]cc1-c1ccnc(NC2CCN(C)CC2)n1 [Example 139]
7 | – | – | – | – | < 5 | ≥ 15 | < 5 | < 15 | CC(C)c1n[nH]cc1-c1ccnc(NCCN(C(C)C)C(C)C)n1 [Example 146]
8 | – | – | – | – | < 0.5 | < 0.5 | < 5 | < 5 | CC(C)c1n[nH]cc1-c1ccnc(NC2CCc3cc(Cl)ccc32)n1 (stereo not shown) [Example 190]
9 | – | – | – | – | < 15 | ≥ 15 | < 15 | < 15 | Cc1n[nH]cc1-c1ccnc(NCC2CCCO2)n1 (stereo not shown) [Example 88]
10 | < 10 | ≥ 15 | ≥ 15 | < 15 | – | – | – | – | CC(C)c1[nH]ncc1-c1ccnc(NCC2CCNCC2)c1 [Example 47]
11 | < 5 | < 5 | < 5 | < 0.5 | – | – | – | – | CC(C)c1[nH]ncc1-c1ccnc(NCc2ccncc2)c1 [Example 22]
12 | – | – | – | – | < 0.1 | < 1 | < 0.5 | < 5 | CC(C)c1n[nH]cc1-c1ccnc(NC2CCCCC2C)n1 (stereo not shown) [Example 160]
13 | < 10 | ≥ 15 | ≥ 15 | < 15 | – | – | – | – | CC(C)c1[nH]ncc1-c1ccnc(NCCCN2CCOCC2)c1 [Example 36]
14 | – | – | – | – | < 0.05 | < 0.5 | < 5 | < 1 | CC(C)c1n[nH]cc1-c1ccnc(N[C@@H]2CCCc3ccccc32)n1 [Example 177]
15 | – | – | – | – | < 15 | ≥ 15 | ≥ 15 | < 15 | COCCNc1nccc(-c2c[nH]nc2C)n1 [Example 120]
16 | – | – | – | – | < 10 | ≥ 15 | ≥ 15 | < 15 | Cc1n[nH]cc1-c1ccnc(NCCN2CCCCC2)n1 [Example 111]
17 | – | – | – | – | < 5 | < 15 | < 10 | < 15 | Cc1n[nH]cc1-c1ccnc(NCC2CCCCCC2)n1 [Example 105]
18 | < 5 | < 5 | < 5 | < 15 | – | – | – | – | CC(C)c1[nH]ncc1-c1ccnc(NCc2ccc3c(c2)OCO3)c1 [Example 35]
19 | – | – | – | – | < 15 | ≥ 15 | ≥ 15 | < 15 | Cc1n[nH]cc1-c1ccnc(NCc2ccccn2)n1 [Example 126]
20 | – | – | – | – | < 5 | < 15 | < 15 | < 15 | CC(=O)NCCNc1nccc(-c2c[nH]nc2C)n1 [Example 123]
21 | < 5 | < 10 | < 10 | < 15 | – | – | – | – | CC(C)c1[nH]ncc1-c1ccnc(NCCOc2ccccc2)c1 [Example 21]
22 | – | – | – | – | < 10 | ≥ 15 | ≥ 15 | < 15 | COc1cccc(CNc2nccc(-c3c[nH]nc3C)n2)c1 [Example 107]
23 | – | – | – | – | < 5 | ≥ 15 | ≥ 15 | < 15 | Cc1cc(C)cc(CNc2nccc(-c3c[nH]nc3C)n2)c1 [Example 134]
24 | – | – | – | – | < 15 | ≥ 15 | ≥ 15 | < 15 | Cc1n[nH]cc1-c1ccnc(NCCCN(C)C)n1 [Example 118]

The next lines start with the compound.

Row | Structure (SMILES) | IC50 (CDK4; Table 1, read-out: CDK4 HTRF) [µM] | IC50 (CDK2 cyA; [1]) [µM] | IC50 (hCDK1/B; Table 1) [µM] | IC50 (p-pRb/S780; [2]) [µM] | IC50 (CDK4; [3]) [µM] | IC50 (CDK2 cyA; [4]) [µM] | IC50 (hCDK1/B; Table 2) [µM] | IC50 (p-pRb/S780; [5]) [µM]
25 | Cc1n[nH]cc1-c1ccnc(NCCC#N)n1 [Example 96] | – | – | – | – | < 5 | < 15 | < 15 | < 15
26 | Cc1ccc(CNc2nccc(-c3c[nH]nc3C)n2)cc1 [Example 117] | – | – | – | – | < 10 | ≥ 15 | ≥ 15 | < 15
27 | Cc1cc(C)n(CCNc2nccc(-c3c[nH]nc3C(C)C)n2)n1 [Example 149] | – | – | – | – | < 5 | < 15 | < 10 | < 15
28 | Cc1n[nH]cc1-c1ccnc(NC2CCCN(C(=O)OC(C)(C)C)C2)n1 (stereo not shown) [Example 115] | – | – | – | – | < 10 | ≥ 15 | ≥ 15 | < 15
29 | CC(C)c1[nH]ncc1-c1ccnc(Nc2ccccc2)c1 [Example 48] | < 0.1 | < 0.05 | < 0.1 | < 1 | – | – | – | –
30 | CC(C)c1n[nH]cc1-c1ccnc(NC2CCNCC2)n1 [Example 141] | – | – | – | – | < 0.05 | < 1 | < 0.5 | < 5
31 | CCN(CC)CCNc1nccc(-c2c[nH]nc2C(C)C)n1 [Example 144] | – | – | – | – | < 5 | ≥ 15 | ≥ 15 | < 15
32 | Cc1n[nH]cc1-c1ccnc(NCCc2ccccc2)n1 [Example 91] | – | – | – | – | < 1 | < 10 | < 10 | < 15
33 | CC(C)c1n[nH]cc1-c1ccnc(NC2CN3CCC2CC3)n1 (stereo not shown) [Example 159] | – | – | – | – | < 0.05 | < 5 | < 0.5 | < 5
34 | Cc1n[nH]cc1-c1ccnc(NCc2cccc(C(F)(F)F)c2)n1 [Example 89] | – | – | – | – | < 5 | < 10 | < 10 | < 15
35 | Cc1n[nH]cc1-c1ccnc(NCc2ccc(F)cc2)n1 [Example 95] | – | – | – | – | < 5 | < 10 | < 10 | < 15
36 | CC(C)c1n[nH]c(Br)c1-c1ccnc(NC2CCN(C)CC2)n1 [Example 179] | – | – | – | – | < 0.1 | < 5 | < 5 | < 1
37 | COc1cc(CNc2nccc(-c3c[nH]nc3C)n2)cc(OC)c1 [Example 133] | – | – | – | – | < 15 | ≥ 15 | ≥ 15 | < 15
38 | Cc1n[nH]cc1-c1ccnc(NCC2CCCCC2)n1 [Example 103] | – | – | – | – | < 5 | < 10 | < 10 | < 15
39 | CC(C)c1n[nH]cc1-c1ccnc(NC2CCCc3ccccc32)n1 (stereo not shown) [Example 169] | – | – | – | – | < 0.05 | < 1 | < 5 | < 5
40 | Cc1n[nH]cc1-c1ccnc(NCCC2CCCN2C)n1 (stereo not shown) [Example 113] | – | – | – | – | < 10 | ≥ 15 | ≥ 15 | < 15
41 | CC(C)c1n[nH]cc1-c1ccnc(NC2CCc3ccccc32)n1 (stereo not shown) [Example 174] | – | – | – | – | < 0.05 | < 1 | < 1 | < 5
42 | COc1ccccc1CNc1nccc(-c2c[nH]nc2C)n1 [Example 130] | – | – | – | – | < 5 | < 15 | < 10 | < 15
43 | CC(C)c1[nH]ncc1-c1ccnc(NCCCN(C)C)c1 [Example 16] | < 5 | ≥ 15 | ≥ 15 | < 15 | – | – | – | –
